Earlier results, collected in patent US20050197342A1, “Substituted nitrogen-containing six-membered amino-heterocycles as vanilloid-1 receptor antagonists for treating pain” (priority 2003, published 2005).

Molecular target: VR1 (Rattus norvegicus, UniProt O35433)
Settings: Wahl et al., Mol. Pharmacol., 59:9, 2001

VR1, sequence (O35433 whole entry): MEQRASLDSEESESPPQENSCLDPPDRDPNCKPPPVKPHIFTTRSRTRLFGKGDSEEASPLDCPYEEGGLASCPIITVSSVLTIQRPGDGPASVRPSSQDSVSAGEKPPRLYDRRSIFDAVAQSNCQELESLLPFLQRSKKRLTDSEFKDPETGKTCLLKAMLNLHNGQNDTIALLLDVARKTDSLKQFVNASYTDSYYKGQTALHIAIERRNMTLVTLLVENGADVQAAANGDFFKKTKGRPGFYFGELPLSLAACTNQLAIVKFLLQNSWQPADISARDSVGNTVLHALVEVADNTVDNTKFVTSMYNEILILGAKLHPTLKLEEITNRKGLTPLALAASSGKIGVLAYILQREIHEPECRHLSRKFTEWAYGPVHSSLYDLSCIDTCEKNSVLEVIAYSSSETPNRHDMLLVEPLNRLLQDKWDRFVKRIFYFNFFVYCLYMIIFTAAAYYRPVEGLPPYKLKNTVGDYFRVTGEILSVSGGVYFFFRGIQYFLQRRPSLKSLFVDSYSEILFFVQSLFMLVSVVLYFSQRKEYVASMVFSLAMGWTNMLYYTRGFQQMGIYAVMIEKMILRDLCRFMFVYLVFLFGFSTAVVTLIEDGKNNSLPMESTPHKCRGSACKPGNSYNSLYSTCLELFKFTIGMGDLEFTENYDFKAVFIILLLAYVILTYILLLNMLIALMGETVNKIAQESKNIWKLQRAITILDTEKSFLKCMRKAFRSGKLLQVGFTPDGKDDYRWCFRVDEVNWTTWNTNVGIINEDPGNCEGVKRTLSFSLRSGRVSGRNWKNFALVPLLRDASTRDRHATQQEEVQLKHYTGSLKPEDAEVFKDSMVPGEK

C=C(C)[C@]12C[C@@H](C)[C@@]34O[C@](Cc5ccccc5)(O[C@@H]1[C@@H]3C=C(COC(=O)Cc1cc(I)c(O)c(OC)c1)C[C@]1(O)C(=O)C(C)=C[C@@H]41)O2 [Iodo-resiniferatoxin]
antagonist of VR1: nanomolar antagonist
